pKi: −log10 of the molar value. Active and inactive are the calls of the source. No cut-off for these calls is given here.
How the values were obtained:
Rhesus monkey [1] = test: In vivo displacement of [11C]FMZ from rhesus monkey GABA-A receptor at 0.5 mg/kg, iv after 50 to 90 mins by PET analysis; assay type: functional, organism-based; details: Macaca mulatta
Rhesus monkey [2] = test: In vivo displacement of [11C]FMZ from rhesus monkey GABA-A receptor assessed late distribution volume ratio to early distribution volume ratio of […] at 7 mg/kg, iv by Logan plot analysis (reference value: 115 to 121 %); assay type: functional, Macaca mulatta
[3] = target: GABA-A receptor; anion channel; test: Displacement of [3H]FMZ from GABA-A receptor in rat brain after 30 mins by autoradiography; assay type: tissue-based
[4] = target: T1, GABA-A receptor; anion channel (Homo sapiens) (UniProt P14867+P47870+P18507+P28472+P48169+Q99928+Q9UN88+P34903+O00591+O14764+Q8N1C3+P18505+P78334+P47869+P31644+Q16445); test: Negative allosteric modulation of GABA-A receptor (unknown origin) at 300 uM by whole cell patch clamp assay
Rhesus monkey [5] = test: In vivo displacement of [11C]FMZ from rhesus monkey GABA-A receptor assessed as late distribution volume ratio to early distribution volume ratio of […] at 3.5 mg/kg, iv by Logan plot analysis (reference value: 115 to 121 %); assay type: functional, Macaca mulatta
Rhesus monkey [6] = test: In vivo displacement of [11C]FMZ from rhesus monkey GABA-A receptor at 7 mg/kg, iv after 50 to 90 mins by PET analysis; assay type: functional, organism-based; details: Macaca mulatta
[7] = target: GABA-A receptor; anion channel (Rattus norvegicus) (UniProt O09028+P15431+P18506+P18508+P19969+P20236+P23574+P23576+P28471+P28473+P30191+P62813+P63079+P63138+Q91ZM7+Q9ES14); details: Brain, 10 uM
Description: Displacement of [3H]FMZ from GABA-A receptor in rat brain at 10 uM preincubated for 30 mins followed by FMZ addition measured up to 16 mins

Rhesus monkey [8] = test: In vivo displacement of [11C]FMZ from rhesus monkey GABA-A receptor at 3.5 mg/kg, iv after 50 to 90 mins by PET analysis; assay type: functional, organism-based; details: Macaca mulatta
[9] = target: T1, GABA-A receptor; anion channel (Homo sapiens); test: Negative allosteric modulation of GABA-A receptor (unknown origin) at 3 uM by whole cell patch clamp assay

In the case of `CCOC(=O)c1ncn2c1CN(C)C(=O)c1cc(F)ccc1-2`, the Activity (Rhesus monkey [1]) was “Active”.
For `CC[C@H]1OC(=O)[C@H](C)[C@@H](O[C@H]2C[C@@](C)(OC)[C@@H](O)[C@H](C)O2)[C@H](C)[C@@H](O[C@@H]2O[C@H](C)C[C@H](N(C)C)[C@H]2O)[C@](C)(OC)C[C@@H](C)C(=O)[C@H](C)[C@@H](O)[C@]1(C)O` [CLARITHROMYCIN], the Activity (Rhesus monkey [2]) was 89 - 186%, the pKi [3] was less than 5.00 and the inhibition [4] was 45%. The Activity (Rhesus monkey [5]) was 108 - 131%, the inhibition (Rhesus monkey [6]) was “inactive” and the inhibition [7] was “inactive”. The inhibition (Rhesus monkey [8]) was “inactive” and the inhibition [9] was 18%.

Source: ChEMBL document CHEMBL4431373, “Investigation of Proposed Activity of Clarithromycin at GABAA Receptors Using [(11)C]Flumazenil PET” (ACS Med Chem Lett, 2016)
